Results from patent publication US20050239751A1, “Heterocyclic anti-viral compounds comprising metabolizable moieties and their uses” (Rigel Pharmaceuticals, Inc., priority 2004, published 2005).

test system: HCV replicon in 5-2 Luc replicon-comprising cells; assay: HCV replicon assay (luciferase; HEPC_REPLICON-LUC); assay type: cell-based, Hepatitis C virus; conditions: Hepatitis C virus; Tables 3-12; 50% reduction in luciferase emission, 5-2 Luc replicon cells; read-out: Replicon (IC50)
Description: In one embodiment, the inhibitory activity of the metabolically active agent of the prodrug can be confirmed in a replicon assay that assesses the ability of a test compound to block or inhibit HCV replication in replicon cells. One example of a suitable replicon assay is the liver cell-line Huh 7-based replicon assay described in Lohmann et al., 1999, Science 285:110-113. A specific example of this replicon assay which utilizes luciferase translation is provided in the Examples Section. In one embodiment of this assay, the amount of test prodrug that yields a 50% reduction in translation as compared to a control cell (IC50) may be determined.
The inhibitory activity of certain prodrugs of the invention, which may inhibit HCV translation or replication prior to metablism and/or are metabolized into active agents, was confirmed using an HCV replicon assay. The HCV replicon can include such features as the HCV 5′ untranslated region including the HCV IRES, the HCV 3′ untranslated region, selected HCV genes encoding HCV polypeptides, selectable markers, and a reporter gene such as luciferase, GFP, etc. In the assay, actively dividing 5-2 Luc replicon-comprising cells (obtained from Ralf Bartenschlager; see Lohmann et al., 1999, Science 285:110-113) were seeded at a density of between about 5,000 and 7,500 cells/well onto 96 well plates (about 90 µl of cells per well) and incubated at 37° C. and 5% CO2 for 24 hours. Then, the test prodrug (in a volume of about 10 PI) was added to the wells at various concentrations and the cells were incubated for an additional 24-48 hours before luciferase assay. The media was aspirated from each well and Bright-Glo (Promega, Madison, WI) luciferase assay reagents were added to each well according to the manufacturer's instructions. Briefly, the BrightGlo reagent was diluted 1:1 with PBS and 100 µl of diluted reagent was added to each well. After 5 min of incubation at room temperature, luciferin emission was quantified with a luminometer. In this assay, the amount of test prodrug that yielded a 50% reduction in luciferase emission (IC50) was determined. This IC50 value may represent the antiviral activity of the prodrug itself, the activity of prodrug transformed into its active metabolized form, or a combination of the two.
In TABLES 3 through 12, a value of “+” indicates an IC50 of 10 μM or less in the specified assay; a value of “−” indicates an IC50 of greater than 10 μM in the specified assay.

| SMILES | IC50 [µM] |
| --- | --- |
| COC(=O)C(Cl)(Cl)C(=O)Nc1cccc(-c2cc(-c3c(F)cccc3C(F)(F)F)no2)c1 [Cpd. 30, 2′,2′-dichloro-2′-(methoxycarbonyl)-N-[3-[3-(2-fluoro-6-trifluoromethylphenyl)-5-isoxazoyl]phenyl] acetamide] | ≤ 10 |
| COc1cccc(Cl)c1-c1cc(-c2cccc(N(Cc3oc(=O)oc3C)C(=O)C(Cl)Cl)c2)on1 [Cpd. 31, 2,2-dichloro-N-[3′-[3′-(2′-chloro-6′-methoxyphenyl)-5′-isoxazoyl]phenyl]-N-[(5-methyl-1,3-dioxolene-2-one-4-yl)methylene] acetamide] | ≤ 10 |
| CC(C)c1oc(=O)oc1CN(C(=O)C(Cl)Cl)c1cccc(-c2cc(-c3c(Cl)cccc3Cl)no2)c1 [Cpd. 34, 2,2-dichloro-N-[3′-[3′-(2′,6′-dichlorophenyl)-5′-isoxazoyl]phenyl]-N-[(5-isopropyl-1,3-dioxolene-2-one4-yl)methylene] acetamide] | ≤ 10 |
| CC(C)c1oc(=O)oc1CN(C(=O)C(Cl)Cl)c1cccc(-c2cc(-c3c(Cl)ccnc3N(C)C)no2)c1 [Cpd. 35] | ≤ 10 |
| COc1cccc(Cl)c1-c1cc(-c2cccc(N(Cc3oc(=O)oc3C(C)C)C(=O)C(Cl)Cl)c2)on1 [Cpd. 37, 2,2-dichloro-N-[3′-[3′-(2′-chloro-6′-methoxyphenyl)-5′-isoxazoyl]phenyl]-N-[(5-isopropyl-1,3-dioxolene-2-one-4-yl)methylene] acetamide] | ≤ 10 |
| CCCc1oc(=O)oc1CN(C(=O)C(Cl)Cl)c1cccc(-c2cc(-c3c(Cl)cccc3Cl)no2)c1 [Cpd. 38, 2,2-dichloro-N-[3′-[3′-(2′,6′-dichlorophenyl)-5′-isoxazoyl]phenyl]-N-[(5-n-propyl-1,3-dioxolene-2-one-4-yl)methylene] acetamide] | ≤ 10 |
| O=C(C(Cl)Cl)N(Cc1oc(=O)oc1C1CCCCC1)c1cccc(-c2cc(-c3c(Cl)cccc3Cl)no2)c1 [Cpd. 39, 2,2-dichloro-N-[3′-[3′-(2′,6′-dichlorophenyl)-5′-isoxazoyl]phenyl]-N-[(5-cyclohexyl-1,3-dioxolene-2-one4-yl)methylene] acetamide] | ≤ 10 |
| CCc1oc(=O)oc1CN(C(=O)C(Cl)Cl)c1cccc(-c2cc(-c3c(Cl)cccc3Cl)no2)c1 [Cpd. 40] | ≤ 10 |
| Cc1oc(=O)oc1CN(C(=O)C(Cl)Cl)c1ccnc(-c2cc(-c3c(Cl)cccc3Cl)no2)c1 [Cpd. 41, 2,2-dichloro-N-[2′-[3′-(2′,6′-dichlorophenyl)-5′-isoxazoyl](4-pyridyl)]-N-[(5-methyl-1,3-dioxolene-2-one4-yl)methylene] acetamide] | ≤ 10 |
| CC(C)c1oc(=O)oc1CN(C(=O)C(Cl)Cl)c1ccnc(-c2cc(-c3c(Cl)cccc3Cl)no2)c1 [Cpd. 42, 2,2-dichloro-N-[2′-[3′-(2′,6′-dichlorophenyl)-5′-isoxazoyl](4-pyridyl)]N-[(5-i-propyl-1,3-dioxolene-2-one4-yl)methylene] acetamide] | ≤ 10 |
| CCCCCc1oc(=O)oc1CN(C(=O)C(Cl)Cl)c1ccnc(-c2cc(-c3c(Cl)cccc3Cl)no2)c1 [Cpd. 43, 2,2-dichloro-N-[2′-[3′-(2′,6′-dichlorophenyl)-5′-isoxazoyl](4pyridyl)]N-[(5-n-pentyl-1,3-dioxolene-2-one4yl)methylene] acetamide] | ≤ 10 |
| CCOC(=O)c1oc(=O)oc1CN(C(=O)C(Cl)Cl)c1cccc(-c2cc(-c3c(Cl)cccc3Cl)no2)c1 [Cpd. 44] | > 10 |
| O=C(Nc1cccc(-c2cc(-c3c(Cl)cccc3Cl)no2)c1)C(Cl)(Cl)C(=O)N1CCOCC1 [Cpd. 50] | ≤ 10 |
| CC(C)(C)OC(=O)C(Cl)(Cl)C(=O)Nc1ccnc(-c2cc(-c3c(Cl)cccc3Cl)no2)c1 [Cpd. 505] | ≤ 10 |
| O=C(Nc1ccnc(-c2cc(-c3c(Cl)cccc3Cl)no2)c1)C(Cl)(Cl)C(=O)OC1CCCCC1 [compound 23] | ≤ 10 |
| O=C(Nc1cccc(-c2cc(-c3c(N4CCOCC4)ccnc3Cl)no2)c1)C(Cl)(Cl)C(=O)OC1CCCCC1 [compound 52] | > 10 |
| CCOC(=O)C(Cl)(Cl)C(=O)Nc1cccc(-c2cc(-c3c(N4CCOCC4)ccnc3Cl)no2)c1 [compound 54] | > 10 |
| CC(C)(C)OC(=O)C(Cl)(Cl)C(=O)Nc1cccc(-c2cc(-c3c(N4CCOCC4)ccnc3Cl)no2)c1 [compound 56] | > 10 |
| Cc1oc(=O)oc1CN(C(=O)C(Cl)Cl)c1cccc(-c2cc(-c3c(Cl)cccc3Cl)no2)c1 [compound 901, 2,2-dichloro-N-[3′-[3′-(2′,6′-dichlorophenyl)-5′-isoxazoyl]phenyl]N-[(5-methyl-1,3-dioxolene-2-one4-yl)methylene] acetamide] | ≤ 10 |
| CC(C)(C)c1oc(=O)oc1CN(C(=O)C(Cl)Cl)c1cccc(-c2cc(-c3c(Cl)cccc3Cl)no2)c1 [compound 1007, 2,2-dichloro-N-[3′-[3′-(2′,6′-dichlorophenyl)-5′-isoxazoyl]phenyl]-N-[(5-t-butyl-1,3-dioxolene-2-one4yl)methylene]acetamide] | ≤ 10 |

same assay, conditions: Table 15; read-out: Replicon (IC50)

| SMILES | IC50 [µM] |
| --- | --- |
| O=C(CCN(C(=O)C(Cl)Cl)c1cccc(-c2cc(-c3c(Cl)cccc3Cl)no2)c1)c1ccc(Cl)cc1 [Cpd. 104a, 2′,2′-Dichloro-N-[3-[3-(2,6-dichlorophenyl)-5-isoxazolyl]phenyl]-N-[2-(4-chlorobenzoyl)ethyl] Acetamide] | ≤ 10 |

test system: HCV NS5A protein in 9-13 replicon cells; assay: Replicon quantitative Western blot assay (HEPC_REPLICON-ICWESTERN); assay type: cell-based; conditions: Hepatitis C virus; Table 14; read-out: HEPC_REPLICON-ICWESTERN Result Value
Method: Alternatively, the inhibitory activity of the metabolically active agents of the prodrugs can be confirmed using a quantitative Western immunoblot assay utilizing antibodies specific for HCV non-structural proteins, such as NS3, NS4A NS5A and NS5B. In one embodiment of this assay, replicon cells are treated with varying concentrations of test prodrug to determine the concentration of the metabolically active agent of the test prodrug that yields a 50% reduction in the amount of a non-structural protein produced as compared to a control sample (IC50). A single non-structural protein may be quantified or multiple non-structural proteins may be quantified. Antibodies suitable for carrying out such immunoblot assays are available commercially (e.g., from BIODESIGN International, Saco, Me.).
Certain prodrugs of the invention, which may inhibit HCV translation or replication prior to metablism and/or are metabolized into active agents, were also tested for their ability to inhibit HCV replication using a quantitative Western blot analysis with antibodies specific for the HCV NS5A or other non-structural proteins. Actively dividing 9-13 replicon cells were seeded into 6-well plates at a density of 1×10^5 cells/well in a volume of 2 ml/well and incubated at 37° C. and 5% CO2 for 24 hours. Various concentrations of test prodrugs (in a volume of 10 ul) were added to the wells and the cells incubated for another 48 hours. Protein samples were prepared from the cultured cells, resolved on a SDS-PAGE gel and transferred to a nitrocellulose membrane. The membrane was blocked with 5% non-fat milk in PBS for 1 hour at room temperature. Primary antibody (anti NS5A antibody; BIODESIGN International, Saco, Me.) incubation was performed for 1 hour at room temperature, after which the membrane was washed 3 times (for 15 min per time) with PBST (PBS plus 0.1% Tween 20). Horseradish peroxidase conjugated secondary antibody incubation was performed for 1 hour at room temperature and the membrane was washed 3 times (for 15 min per time) with PBST. The membrane was then soaked in substrate solution (Pierce) and exposed to a film or quantified using an imager. In this assay, the amount of test prodrug that is believed to be transformed into an active agent under the given conditions that yielded a 50% reduction in the amount of NS5A protein translated as compared to a control sample (IC50) was determined.

| SMILES | IC50 [µM] |
| --- | --- |
| CC(C)(C)OC(=O)c1ccc(CN(C(=O)C(Cl)Cl)c2ccnc(-c3cc(-c4c(Cl)cccc4Cl)no3)c2)cc1 [Cpd. 1021, tert-Butyl 4-((2,2-Dichloro-N-(2-(3-(2,6-dichlorophenyl)isoxazol-5-yl)pyridin-4-yl)acetamido)methyl)benzoate] | 1 to 20 |
| O=C(C(Cl)Cl)N(Cc1ccc(OCCN2CCOCC2)cc1)c1ccnc(-c2cc(-c3c(Cl)cccc3Cl)no2)c1 [Cpd. 1022, 2,2-Dichloro-N-(2-(3-(2,6-dichlorophenyl)isoxazol-5-yl)pyridin-4-yl)-N-(4-(2-morpholinoethoxy)benzyl)acetamide] | < 1 |
| CCN1CCN(c2ccc(CN(C(=O)C(Cl)Cl)c3ccnc(-c4cc(-c5c(Cl)cccc5Cl)no4)c3)cc2)CC1 [Cpd. 1023, 2,2-Dichloro-N-(2-(3-(2,6-dichlorophenyl)isoxazol-5-yl)pyridin-4-yl)-N-(4-(4-ethylpiperazin-1-yl)benzyl)acetamide] | < 1 |
| O=C(CCN(C(=O)C(Cl)Cl)c1ccnc(-c2cc(-c3c(Cl)cccc3Cl)no2)c1)C1CCCN1 (centres unmarked) [Cpd. 1024, 2,2-Dichloro-N-(2-(3-(2,6-dichlorophenyl)isoxazol-5-yl)pyridin-4-yl)-N-(3-oxo-3-(pyrrolidin-2-yl)propyl)acetamide] | < 1 |
| O=C(C(Cl)Cl)N(CCN1CCOCC1)c1ccnc(-c2cc(-c3c(Cl)cccc3Cl)no2)c1 [Cpd. 1026, 2,2-Dichloro-N-(2-(3-(2,6-dichlorophenyl)isoxazol-5-yl)pyridin4-yl)-N-(2-morpholinoethyl)acetamide] | > 20 |
